We go through 1 molecule from patent publication US8372379B2, “Technetium-99m (I) tricarbonyl complexes with tridentate chelators for myocardium imaging” (Mallinckrodt LLC, priority 2006, dated 2013).

A short description of this data set: Biodistribution of 99mTc complexes in female CD-1 mice after intravenous injection. The class given is in vivo. The following applies: i.v. As for the experimental part:
These studies have been designed as a preliminary screening tool to evaluate the biological profile of the cationic tricarbonyl complexes. The biodistribution of the complexes was evaluated in groups of 5 female CD-1 mice (randomly bred, Charles River) weighing approximately 20-25 g each and have been performed according to EEC Legislation (National Law 129/92) on ethical and animal care. Animals were intravenously injected with 100 μL (1.5-8.0 MBq) of each preparation via the tail vein and were maintained on normal diet ad libitum. […] The injected radioactive dose and the radioactivity remaining in the animal after sacrifice were measured in a dose calibrator (Aloka, Curiemeter IGC-3, Tokyo, Japan). The difference between the radioactivity in the injected and sacrificed animal was assumed to be due to total excretion from whole body animal. Blood samples were taken by cardiac puncture at sacrifice. Tissue samples of the main organs were then removed, weighted and counted in a gamma counter (Berthold). Biodistribution results were expressed as percentage of the injected dose per organ (% ID/organ) and/or per gram tissue (% ID/g). For blood, total activity was calculated assuming that this organ constitutes 6% of the total weight, respectively. The remaining activity in the carcass was also measured in a dose calibrator.

Take `[C-]#[N+]CC(C)(C)OC.[C-]#[N+]CC(C)(C)OC.[C-]#[N+]CC(C)(C)OC.[C-]#[N+]CC(C)(C)OC.[C-]#[N+]CC(C)(C)OC.[C-]#[N+]CC(C)(C)OC.[Tc]` [^99mTc-Sestamibi]: under “5 min p.i.”, the Blood uptake is 2.0 ± 0.4 % ID/g of wet organ, the Heart uptake is on record as 9.4 ± 0.4 % ID/g of wet organ, the Heart/Blood ratio stood at 4.1 ± 0.7 and the Heart/Liver ratio was 0.9 ± 0.2. Where the note is “5 min p.i.”, the Heart/Lung ratio stood at 3.5 ± 0.8, the Kidney uptake was 34.2 ± 2.4 % ID/g of wet organ, the Liver uptake is recorded as 9.0 ± 1.8 % ID/g of wet organ and the Lung uptake is 2.4 ± 0.6 % ID/g of wet organ. Further, for the setting “1 h (60 min) p.i.”, the Blood uptake is 1.2 ± 0.4 % ID/g of wet organ, the Heart uptake is recorded as 8.0 ± 0.6 % ID/g of wet organ, the Heart/Blood ratio worked out at 7.9 ± 3.6 and the Heart/Liver ratio is on record as 1.4 ± 0.1. In addition, where the note is “1 h (60 min) p.i.”, the Heart/Lung ratio is recorded as 6.3 ± 0.6, the Kidney uptake is recorded as 14.8 ± 6.1 % ID/g of wet organ, the Liver uptake is reported as 5.6 ± 0.3 % ID/g of wet organ and the Lung uptake is recorded as 1.3 ± 0.2 % ID/g of wet organ. Besides, under “2 h (120 min) p.i.”, the Blood uptake was 1.1 ± 0.3 % ID/g of wet organ, the Heart uptake is listed as 7.9 ± 1.0 % ID/g of wet organ, the Heart/Blood ratio is recorded as 7.4 ± 2.3 and the Heart/Liver ratio was 1.8 ± 0.7. Besides, where the note is “2 h (120 min) p.i.”, the Heart/Lung ratio is recorded as 9.2 ± 1.1, the Kidney uptake was 9.7 ± 1.8 % ID/g of wet organ, the Liver uptake is 5.0 ± 2.1 % ID/g of wet organ and the Lung uptake is given as 0.9 ± 0.2 % ID/g of wet organ.
